Assays:
[1] = Comparative blood and brain concentrations in rats after single p.o. dose; format: in vivo; details: rat, single p.o. dose 3, 10, 30 mg/kg; 3 h and 24 h
Method: Concentrations were determined using HPLC/Mass spectrometry. […] Blood and brain tissues were collected at 3 hours (h) and 24 h following treatment to determine concentrations of the compounds.

[2] = test system: mTORC1 signaling (pS6 Ser240/244) in MEF TSC1−/− cells; assay: MEF TSC1-/- cell based assay for rapalog potency (pS6); set-up: species or system mouse; details: Mus musculus, 2 h, 2 h treatment, average from multiple assays
Text: Potency of mTOR inhibitors may also be determined using a MEF TSC1−/− cell-based assay. MEF TSC1−/− cells are Mouse Embryonic Fibroblasts deficient in the Tuberous sclerosis protein, TSC1, which negatively regulates mTORC1 signaling. Thus, the deficiency of TSC1 induces constitutive mTORC1 activation, resulting in phosphorylation (activation) of the downstream proteins in the mTORC1 signaling pathways. This cell-based assay is used to measure inhibition (de-phosphorylation) of the mTORC1 signaling components S6 and 4EBP1, by rapalogs or other mTOR inhibitors.
The assay is typically carried out as follows: MEF TSC1−/− cells are plated on Poly-D-lysine coated 384 well Griener clear bottom plates and incubated overnight at 37° C., 5% CO2. […] Cells are fixed with 4% paraformaldehyde for 30 min and washed 5 times with TBS-EDTA followed by immuno-staining with florescent tag labeled antibodies for pS6 and p4EBP1. Nuclei are visualized with Hoechst staining. Cells are imaged using respective florescence channels and the potency of mTOR inhibitors is defined by pS6 IC50 (nM).
Cell-based assay for rapalog potency determination. Rapalog potency was determined using MEF TSC1−/− cell based assay. MEF TSC1−/− cells are Mouse Embryonic Fibroblasts deficient in Tuberous sclerosis protein-TSC1, which negatively regulates mTORC1 signaling and thus display constitutive mTORC1 activation, resulting in phosphorylation (activation) of downstream molecules. This cell-based assay is used to measure inhibition (de-phosphorylation) of S6 and 4EBP1 by rapalogs or other mTOR inhibitors.
MEF TSC1−/− cells were plated on Poly-D-lysine coated 384 well Griener clear bottom plates and incubated overnight at 37° C., 5% CO2. […] Nuclei were visualized with Hoechst (ThermoFisher Scientific #H3570) staining. Cells were imaged (InCell 600) using respective fluorescence channels and the potency of mTOR inhibitors was defined by pS6 IC50 (nM).
In vitro potency of mTOR inhibitors was defined by pS6 IC50 (nM) in MEF TSC1−/− cells.
IC50 values are calculated as the average from multiple assays.

[3] = test system: S6K1 (Thr389) phosphorylation (mTORC1 activity) in FKBP12 knock-out 293T cells; assay: S6K1 (Thr389) phosphorylation ELISA in FKBP12 knock-out 293T cells; format: cell-based; details: 2 h, relative to DMSO
FKBP52 = FKBP52 (Homo sapiens (Human), UniProt Q02790); assay: SPR assay, binding affinity to FKBP52; details: single-cycle kinetics
Method: (§1) SPR Assay to Determine Binding Affinity to FK506-Binding Proteins (FKBP). N-terminal avi-his6 tagged FKBP fusions to FKBP12, FKBP51 and FKBP52 were expressed in E. coli and purified using standard chromatography. Each protein was subsequently immobilized on a streptavidin chip in a Biacore 8K SPR instrument (GE Healthcare). Using single-cycle kinetics, compound titrations were flowed at 45 uL/min over each surface using 2-minute association and 30-minute dissociation phases in a buffer containing 50 mM Tris pH 7.5/150 mM NaCl/0.01% Tween 20/1 mM DTT/2% DMSO. The data was fit using low molecular weight (LMW) single-cycle kinetics. The equilibrium dissociation constants (KD) are reported. […]

[4] = test system: S6K1 (Thr389) phosphorylation (mTORC1 activity) in WT 293T cells; assay: S6K1 (Thr389) phosphorylation ELISA in wild-type 293T cells; format: cell-based; details: 2 h, relative to DMSO
Method: WT, FKBP12 knock-down and FKBP12 knock-out 293T cells were plated at a density of 30,000 cells per well in poly-D-Lysine coated 96-well plates (Corning, #354461) in Dulbecco's modified Eagle's medium (ThermoFisher, #11995-065) supplemented with 10% fetal bovine serum (ThermoFisher, #16140-071). Cells were incubated at 37° C., 5% CO2 for 48 hours until they reached ˜80% confluence. […] Media supplemented with blank Dimethyl sulfoxide (DMSO) was used as a control for both compounds. Phosphorylated amounts of S6K1 (Thr389) were detected by a sandwich ELISA kit (Cell signaling, #7063C) following the manufacture's protocol.
S6K1 is a downstream target of mTORC1 and phosphorylation of its rapalog-sensitive Thr389 site is used as a functional readout of mTORC1 activity. Lee, C. H., Inoki, K. and Guan, K. L. (2007). mTOR pathway as a target in […]. Annu. Rev. Pharmacol. Toxicol. 47. 443-467. […] In FKBP12 knock-out cells. […] Such specificity of Example 2 to FKBP12 may facilitate targeting cells and tissues with relatively high levels of FKBP12 expression, while avoiding (or minimizing) side effects in the tissues where FKBP12 is weakly expressed.

[5] = test system: S6K1 (Thr389) phosphorylation (mTORC1 activity) in FKBP12 knock-down 293T cells; assay: S6K1 (Thr389) phosphorylation ELISA in FKBP12 knock-down 293T cells; format: cell-based; details: 2 h, relative to DMSO
FKBP12 = FKBP12 (Homo sapiens (Human), UniProt P62942); assay: SPR assay, binding affinity to FKBP12; details: single-cycle kinetics
Method: as §1

[6] = test system: mTORC1 pathway (S6 phosphorylation) in rat liver; assay: Inhibition of mTORC1 pathway in rat liver (p-S6/t-S6 immunoblot); format: in vivo
Method: Protein extraction and immunoblotting. For protein extraction, snap frozen tissues were lysed in MSD Lysis Buffer (MSD, Rockville, Maryland), supplemented with complete EDTA free protease inhibitor and PhosSTOP phosphatase inhibitor tablets (Roche, Manheim, Germany), and centrifuged at 13,000g for 20 min at 4° C. The resultant supernatant was used for immunoblotting. Protein was quantified with BCA protein assay (Thermo Scientific, MA). Samples were resolved on 4-20% Criterion™ TGX™ Precast Midi Protein gels (Bio-Rad, CA) and transferred onto nitrocellulose membranes (Bio-Rad, CA) using a Trans Turbo Blot system (Bio-Rad, CA). Immunoblotting was performed with antibodies to p-S6 and t-S6 from Cell Signaling Technologies (all 1:1000 in TBS-T with 5% BSA). The ‘p’ and ‘t’ prefixes signify ‘phosphorylated’ and ‘total’ forms respectively. HRP-conjugated secondary antibodies against rabbit (#7074) were from Cell Signaling Technologies, MA. […] Resultant digital images were converted into a TIFF format and quantified using ImageJ software.
The ability of Example 2 to inhibit mTORC1 pathway in vivo was determined in rats aged 4 months (FIG. 5A-5D).

Sequence of FKBP12 (P62942 whole entry): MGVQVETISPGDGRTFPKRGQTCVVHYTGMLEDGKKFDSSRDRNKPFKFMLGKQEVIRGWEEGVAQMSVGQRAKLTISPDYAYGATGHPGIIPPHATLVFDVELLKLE
Sequence of FKBP52 (Q02790 whole entry, the tested form may be a part): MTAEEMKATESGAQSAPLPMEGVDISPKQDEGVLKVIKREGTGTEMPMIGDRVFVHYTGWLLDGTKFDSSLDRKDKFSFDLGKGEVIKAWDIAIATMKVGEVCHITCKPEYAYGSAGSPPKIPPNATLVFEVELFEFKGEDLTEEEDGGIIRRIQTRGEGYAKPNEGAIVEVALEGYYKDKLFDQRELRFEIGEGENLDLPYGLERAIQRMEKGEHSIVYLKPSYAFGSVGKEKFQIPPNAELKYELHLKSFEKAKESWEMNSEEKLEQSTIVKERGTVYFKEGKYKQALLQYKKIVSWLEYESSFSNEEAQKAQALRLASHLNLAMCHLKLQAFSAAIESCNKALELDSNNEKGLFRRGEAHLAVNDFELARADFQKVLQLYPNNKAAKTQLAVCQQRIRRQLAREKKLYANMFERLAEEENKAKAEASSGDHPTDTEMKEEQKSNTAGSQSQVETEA

- blood concentrations compared with RAD001 [1]: higher
- brain concentrations compared with RAD001 [1]: higher
- IC50 [2]: 0.274 nM
- Kd (FKBP52): > 10000 nM
- Kd (FKBP12): 16 nM
SMILES: CO[C@@H]1C[C@H](C[C@@H](C)[C@@H]2CC[C@H](C)/C=C(\C)[C@@H](O)[C@@H](OC)C(=O)[C@H](C)C[C@H](C)/C=C/C=C/C=C(\C)[C@H](N3CCCS3(=O)=O)C[C@@H]3CC[C@@H](C)[C@@](O)(O3)C(=O)C(=O)N3CCCC[C@H]3C(=O)O2)CC[C@H]1O [Example 2, (R)-C16-(1,1-dioxidoisothiazolidin-2-yl)-C32-deoxo-rapamycin]
- inhibition of S6K1 (Thr389) phosphorylation [3]: failed to inhibit
- inhibition of S6K1 (Thr389) [4]: ~80%
- maximum inhibition of S6K1 (Thr389) [5]: ~40%
- S6 inactivation in rat liver, 24 h ([6]; 24 h following dosing with 10 (trend p=0.06) and 30 mg/kg): remained inactivated
- de-phosphorylation (inactivation) of S6 in rat liver, 3 h ([6]; single p.o. dose 3, 10 and 30 mg/kg, three hours following dosing, vs vehicle): significant de-phosphorylation

Source: US20250223297A1, “NOVEL RAPAMYCIN DERIVATIVES” (Novartis AG, priority 2017, published 2025)
